Like-named read-outs stand apart in the source and are kept apart here.
Columns and labels:
urease [1] = molecular target: T1, urease (Canavalia ensiformis, UniProt P07374); format: biochemical, sword bean
urease [2] = molecular target: T1, urease; format: biochemical, sword bean; remark: listed apart in the source
cytochrome C [3] = molecular target: T2, cytochrome C (Equus caballus, UniProt P00004); experiment: Protein long-term stability (IR and UV spectrum), solid sample; parameters: species or system Horse
T2 construct: a reagent produced by NACALAI TESQUE, INC; (Horse Heart, molecular weight 12384) was used; purchased NACALAI TESQUE, INC; host or cells: horse heart (tissue origin)
T2 sequence (P00004 whole entry): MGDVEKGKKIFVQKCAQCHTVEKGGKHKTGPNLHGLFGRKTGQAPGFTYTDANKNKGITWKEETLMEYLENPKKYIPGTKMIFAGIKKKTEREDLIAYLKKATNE

urease [4] = molecular target: T1, urease; format: biochemical, sword bean; remark: listed apart in the source
cytochrome C [5] = molecular target: T2, cytochrome C; experiment: Protein long-term stability, 50% aqueous solution; parameters: species or system Horse
Method: At first, changes in amide absorption by IR spectrum were precisely observed, and there were confirmed the higher-order structures of protein (turn, α-helix, random coil, β-sheet). The amide I region (1,600 to 1,700 cm^−1) and the amide II region (1,500 to 1,600 cm^−1) were measured by ATR method using a Fourier transform infrared spectrophotometer (FT/IR-6100 by JASCO Corporation), and peaks were then detected based on a difference(s) between a cytochrome C-free organic ammonium salt sample (blank) and a cytochrome C-containing organic ammonium salt sample (sample).
Further, the activity state of cytochrome C (Fe^2+: reduced form, Fe^3+: oxidized form) was confirmed via absorptions in UV spectrum. The measurement was conducted using an ultraviolet-visible spectrophotometer and a quartz cell having an optical path width of 2 mm, immediately after diluting the cytochrome C-containing organic ammonium salt sample to 1% with a 50 mM phosphate buffer of pH 7.4 (prepared using 50 mM potassium dihydrogen phosphate and 50 mM dipotassium hydrogen phosphate).

[6] = Metal oxide dispersibility test (zirconium oxide); format: physicochemical; conditions: 0.25 g compound, 0.50 g water, 0.10 g zirconium oxide (IV); visual
[7] = Metal oxide dispersibility test (titanium oxide); format: physicochemical; conditions: 0.25 g compound, 0.50 g water, 0.10 g titanium oxide (IV); visual
[8] = Organic dye dispersibility test; format: physicochemical; conditions: 0.2 g compound, 0.7 g water, 0.1 g Vali Fast Black 3830; ultrasonic dispersion; after 24 hours; visual
[9] = dispersion liquid dried at 50° C. under reduced pressure for three hours, 0.50 g water added, remixed; visual
[10] = dispersion liquid dried at 50° C. under reduced pressure for three hours, 0.50 g water added, remixed; visual; remark: listed apart in the source
[11] = Vali Fast Black 3830 dispersion liquid dried at 50° C. under reduced pressure for three hours, 0.7 g water added, remixed; visual
[12] = 0.25 g compound, 0.50 g water, 0.10 g zinc oxide; visual
[13] = 0.25 g compound, 0.50 g water, 0.10 g barium titanate; visual
[14] = solid sample, 40° C., 80% RH, after 30 days, Stabilizer:Enzyme = 0.1:1
[15] = solid sample, 40° C., 80% RH, after 30 days, Stabilizer:Enzyme = 1:1
[16] = solid sample, 40° C., 80% RH, after 30 days, Stabilizer:Enzyme = 10:1
[17] = urease in 50 wt % aqueous solution of compound, 40° C., 80% RH, after 30 days, Stabilizer:Enzyme = 1:1
[18] = urease, solid sample mixed by mortar, 40° C., 80% RH, after 30 days, 1:1
[19] = urease, solid sample, solvent distilled away from dissolution solution, 40° C., 80% RH, after 30 days, 1:1
[20] = cytochrome C, solid sample, 40° C., 80% RH, after 30 days, Stabilizer:Protein = 0.1:1
[21] = cytochrome C, solid sample, 40° C., 80% RH, after 30 days, Stabilizer:Protein = 1:1
[22] = cytochrome C, solid sample, 40° C., 80% RH, after 30 days, Stabilizer:Protein = 10:1
[23] = cytochrome C in 50 wt % aqueous solution of compound, 40° C., after 30 days, 1:1

T1 sequence (P07374 whole entry, looked up): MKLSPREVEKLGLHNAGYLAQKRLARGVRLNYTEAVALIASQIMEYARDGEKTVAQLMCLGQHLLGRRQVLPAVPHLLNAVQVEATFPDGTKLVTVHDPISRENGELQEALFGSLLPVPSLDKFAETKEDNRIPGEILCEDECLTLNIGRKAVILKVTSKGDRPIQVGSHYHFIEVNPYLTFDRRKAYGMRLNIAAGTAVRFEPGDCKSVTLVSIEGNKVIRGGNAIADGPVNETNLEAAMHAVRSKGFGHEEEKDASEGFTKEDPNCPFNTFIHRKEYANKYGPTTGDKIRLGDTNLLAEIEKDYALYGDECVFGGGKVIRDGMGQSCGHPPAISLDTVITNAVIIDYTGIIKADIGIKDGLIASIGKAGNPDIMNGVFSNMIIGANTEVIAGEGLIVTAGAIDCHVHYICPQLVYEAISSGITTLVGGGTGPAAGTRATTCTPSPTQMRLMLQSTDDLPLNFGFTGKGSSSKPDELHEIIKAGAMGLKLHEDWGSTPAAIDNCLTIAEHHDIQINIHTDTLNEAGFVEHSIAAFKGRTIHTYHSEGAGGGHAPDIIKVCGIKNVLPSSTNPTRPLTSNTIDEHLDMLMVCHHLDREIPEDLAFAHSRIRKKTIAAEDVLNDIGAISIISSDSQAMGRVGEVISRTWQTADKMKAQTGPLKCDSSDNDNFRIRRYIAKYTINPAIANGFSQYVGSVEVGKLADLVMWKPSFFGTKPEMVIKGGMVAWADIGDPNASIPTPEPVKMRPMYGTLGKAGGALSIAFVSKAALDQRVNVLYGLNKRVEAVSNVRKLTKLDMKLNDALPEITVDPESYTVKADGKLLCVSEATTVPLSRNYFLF

SMILES	Enzyme activity retention rate(%) (after 30 days) Stabilizer: Enzyme = 0.1:1 (urease [1])	Enzyme activity retention rate(%) (after 30 days) Stabilizer: Enzyme = 1:1 (urease [1])	Enzyme activity retention rate(%) (after 30 days) Stabilizer: Enzyme = 10:1 (urease [1])	Enzyme activity retention rate(%) (after 30 days) Stabilizer: Enzyme = 1:1 (urease [2])	Protein long-term stability (after 30 days) Stabilizer: Protein = 0.1:1 (cytochrome C [3])	Protein long-term stability (after 30 days) Stabilizer: Protein = 1:1 (cytochrome C [3])	Protein long-term stability (after 30 days) Stabilizer: Protein = 10:1 (cytochrome C [3])	Enzyme activity retention rate (%) (after 30 days) Stabilizer:Enzyme = 1:1, Mixed by mortar (urease [4])	Enzyme activity retention rate (%) (after 30 days) Stabilizer:Enzyme = 1:1, Solvent distilled away from dissolution solution (urease [4])	Enzyme activity retention rate(%) (after 30 days) Stabilizer: Enzyme = 0.1:1 (urease [1]; [14])	Enzyme activity retention rate(%) (after 30 days) Stabilizer: Enzyme = 1:1 (urease [1]; [15])	Enzyme activity retention rate(%) (after 30 days) Stabilizer: Enzyme = 10:1 (urease [1]; [16])	Enzyme activity retention rate(%) (after 30 days) Stabilizer: Enzyme = 1:1 (urease [2]; [17])	Enzyme activity retention rate (%) (after 30 days) Stabilizer:Enzyme = 1:1, Mixed by mortar (urease [4]; [18])	Enzyme activity retention rate (%) (after 30 days) Stabilizer:Enzyme = 1:1, Solvent distilled away from dissolution solution (urease [4]; [19])	Protein long-term stability (after 30 days) Stabilizer: Protein = 0.1:1 (cytochrome C [3]; [20])	Protein long-term stability (after 30 days) Stabilizer: Protein = 1:1 (cytochrome C [3]; [21])	Protein long-term stability (after 30 days) Stabilizer: Protein = 10:1 (cytochrome C [3]; [22])	Protein long-term stability (after 30 days) Stabilize:Protein = 1:1 (cytochrome C [5]; [23])	also measured
CC(O)C(=O)O.CCCCN(CCCC)CCCC [Comparative example 1, Tributyl Ammonium Lactate, reference compound]	0	0	0	0	×	×	×	0	0											
CC(=O)[O-].C[N+](C)(C)CCO [Comparative example 2, Choline Acetate, reference compound]					×	×	×			2	3	0	2	0	3					
CCCCn1cc[n+](C)c1.[Br-] [Comparative example 3, BMI-Br, reference compound]	0	0	0	0				0	0							×	×	×		
O=C[C@H](O)[C@@H](O)[C@H](O)[C@H](O)CO [Comparative example 4, Glucose, reference compound]	0	0	0	0				0	0							×	×	×		
NC(CO)(CO)CO [Working example 3]										20	50	53	32	11	50	◯	◯	◯	○ ○ ○	
OCCNCCO [Working example 24]										9	25	25	10	5	25	◯	◯	◯	○	
NCC(O)C(O)C(O)C(O)CO (centres unmarked) [Working example 29]										5	18	21	11	0	18	◯	◯	◯	○	
NC(CO)(CO)CO.O=C(O)c1ccccc1 [Working example 60]					◯	◯	◯			7	20	29	21	0	20					Protein long-term stability (after 30 days) Stabilize:Protein = 1:1 (cytochrome C [5]): ○ ○ ○
Br.NC(CO)(CO)CO [Working example 78]	3	4	18	3	◯	◯	◯	0	24											Protein long-term stability (after 30 days) Stabilize:Protein = 1:1 (cytochrome C [5]): ○ ○ ○
NC(CO)(CO)CO [Working example 83]										16	24	38	20	0	24	◯	◯	◯	○ ○ ○	
NC(CO)(CO)CO [Working example 109]																				Zirconium oxide dispersibility [6]: ○ ○ ○ ○; Titanium oxide dispersibility [7]: ○ ○ ○ ○; Dye dispersibility [8]: ○ ○ ○ ○; Redispersibility Zirconium oxide [9]: ○ ○ ○ ○; Redispersibility Titanium oxide [10]: ○ ○ ○ ○; Redispersibility Dye [11]: ○ ○ ○ ○; Zinc oxide dispersibility [12]: ○ ○ ○ ○; Barium titanate dispersibility [13]: ○ ○ ○ ○
